Assay results from US20250368625A1, “PIPERAZINES” (Grünenthal GmbH, priority 2024, published 2025).
pEC50: −log10 of the molar value.

Molecular target: T1, human SSTR4 (Homo sapiens, UniProt P31391)
T1 construct: expressed in transfected cells; host or cells: CHO-K1
Test: hSSTR4 cAMP assay (cAMP accumulation, LANCE Ultra cAMP kit, CHO-K1 human SSTR4 Gi cell line)
Type: cell-based
Settings: functional agonism, forskolin 10 μM stimulated CHO-K1 human SSTR4 Gi cells, 30 min at 25° C., at least duplicate, averaged; read-out: hSSTR4 EC50
Procedure: cAMP accumulation assay using a CHO-K1 human SSTR4 Gi cell line.
Quantification of intracellular cAMP was performed using the LANCE Ultra cAMP assay kit from Revvity according to the manufacturer's instructions. CHO-K1 human SSTR4 Gi cell were either seeded in a density of 3K cells per well into a 384 well plate and incubated at 37° C. and 5% CO2 for 18-20 h or a stock of frozen cells were defrosted and seeded in a density of 5K cells per well without any further cultivation directly prior to the assay in a total volume of 5 μL in stimulation buffer. For pre-cultured cells, medium was replaced with 5 μL stimulation buffer before the assay. Cells were then stimulated with forskolin (final concentration 10 μM) and test compound (SSTR4 agonist) in increasing concentrations in duplicates for 30 min at 25° C. After stimulation, cells were lysed by addition of 10 μL of detection buffer (provided with the kit) and cell lysates were further diluted to ensure final cAMP concentrations fitted well into the dynamic range of the test kit. 10 μL of the diluted lysates were then added to respective wells of an OptiPlate-384 microplate. Thereafter, 5 μL of 4× Eu-cAMP tracer working solution was added, followed by addition of 5 μL of ULight-anti-cAMP working solution. The plate was then incubated for 1 h at 25° C. before reading on a TR-FRET microplate instrument. Data were normalized to cAMP high (forskolin only) and low control (forskolin+100 nM SST14) before fitting to a 4-Paramter logistic function.
All data was generated according to the cAMP assay conditions described above in at least duplicate and results are averaged and rounded to two significant figures.

T1 sequence (P31391 whole entry): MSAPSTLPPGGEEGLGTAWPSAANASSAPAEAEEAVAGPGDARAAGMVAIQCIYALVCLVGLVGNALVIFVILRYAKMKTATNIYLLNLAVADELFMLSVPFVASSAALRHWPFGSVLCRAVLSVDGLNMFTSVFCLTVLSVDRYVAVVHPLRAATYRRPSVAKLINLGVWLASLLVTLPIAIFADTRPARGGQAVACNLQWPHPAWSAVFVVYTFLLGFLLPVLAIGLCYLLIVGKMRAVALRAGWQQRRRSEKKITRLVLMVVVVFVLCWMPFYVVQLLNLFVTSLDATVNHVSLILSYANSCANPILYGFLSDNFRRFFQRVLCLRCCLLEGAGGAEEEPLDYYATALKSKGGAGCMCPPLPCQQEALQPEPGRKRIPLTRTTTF

pEC50	Compound
6.03	Cc1cccn2c(C(C)(C)NC(=O)[C@@H]3CN(Cc4cocn4)CCN3)ncc12 [SC-063, (S)-N-(2-(8-methylimidazo[1,5-a]pyridin-3-yl)propan-2-yl)-4-(oxazol-4-ylmethyl)piperazine-2-carboxamide]
5.62	Cc1cccn2c(C(C)(C)NC(=O)[C@@H]3CN(CC4CCC(F)(F)CC4)CCN3)ncc12 [SC-067, (S)-4-((4,4-difluorocyclohexyl)methyl)-N-(2-(8-methylimidazo[1,5-a]pyridin-3-yl)propan-2-yl)piperazine-2-carboxamide]
6.52	Cc1cccn2c(C(C)(C)NC(=O)[C@@H]3CN(CC(C)C)CCN3)ncc12 [SC-069, (S)-4-isobutyl-N-(2-(8-methylimidazo[1,5-a]pyridin-3-yl)propan-2-yl)piperazine-2-carboxamide]
5.92	Cc1cccn2c(C(C)(C)NC(=O)[C@@H]3CN(Cc4ccnn4C)CCN3)ncc12 [SC-072, (S)-4-((1-methyl-1H-pyrazol-5-yl)methyl)-N-(2-(8-methylimidazo[1,5-a]pyridin-3-yl)propan-2-yl)piperazine-2-carboxamide]
5.59	Cc1cccn2c(C(C)(C)NC(=O)[C@@H]3CN(Cc4cnn(C(C)C)c4)CCN3)ncc12 [SC-074, (S)-4-((1-isopropyl-1H-pyrazol-4-yl)methyl)-N-(2-(8-methylimidazo[1,5-a]pyridin-3-yl)propan-2-yl)piperazine-2-carboxamide]
< 6.00	Cc1cccn2c(C(C)(C)NC(=O)[C@@H]3CN(C(=O)C4CC4)CCN3)ncc12 [SC-077, (S)-4-(cyclopropanecarbonyl)-N-(2-(8-methylimidazo[1,5-a]pyridin-3-yl)propan-2-yl)piperazine-2-carboxamide]
5.19	Cc1cccn2c(C(C)(C)NC(=O)[C@@H]3CN(C(=O)C4CCOCC4)CCN3)ncc12 [SC-078, (S)-N-(2-(8-methylimidazo[1,5-a]pyridin-3-yl)propan-2-yl)-4-(tetrahydro-2H-pyran-4-carbonyl)piperazine-2-carboxamide]
4.82	Cc1cccn2c(C(C)(C)NC(=O)[C@@H]3CN(C(=O)CC4CCOCC4)CCN3)ncc12 [SC-079, (S)-N-(2-(8-methylimidazo[1,5-a]pyridin-3-yl)propan-2-yl)-4-(2-(tetrahydro-2H-pyran-4-yl)acetyl)piperazine-2-carboxamide]
< 5.00	Cc1cccn2c(C(C)(C)NC(=O)[C@@H]3CN(C(=O)C4CC(F)(F)C4)CCN3)ncc12 [SC-080, (S)-4-(3,3-difluorocyclobutane-1-carbonyl)-N-(2-(8-methylimidazo[1,5-a]pyridin-3-yl)propan-2-yl)piperazine-2-carboxamide]
9.96	Cc1cccn2c(C(C)(C)NC(=O)[C@@H]3CNCCN3Cc3ccccc3)ncc12 [SC-085, (S)-1-benzyl-N-(2-(8-methylimidazo[1,5-a]pyridin-3-yl)propan-2-yl)piperazine-2-carboxamide]
9.80	Cc1cccn2c(C(C)(C)NC(=O)[C@@H]3CNCCN3CC3CCOCC3)ncc12 [SC-086, (S)-N-(2-(8-methylimidazo[1,5-a]pyridin-3-yl)propan-2-yl)-1-((tetrahydro-2H-pyran-4-yl)methyl)piperazine-2-carboxamide]
9.10	Cc1ccc(CN2CCNC[C@H]2C(=O)NC(C)(C)c2ncc3c(C)cccn23)cn1 [SC-088, (S)-N-(2-(8-methylimidazo[1,5-a]pyridin-3-yl)propan-2-yl)-1-((6-methylpyridin-3-yl)methyl)piperazine-2-carboxamide]
9.26	Cc1cccn2c(C(C)(C)NC(=O)[C@@H]3CNCCN3CC3CC(F)(F)C3)ncc12 [SC-089, (S)-1-((3,3-difluorocyclobutyl)methyl)-N-(2-(8-methylimidazo[1,5-a]pyridin-3-yl)propan-2-yl)piperazine-2-carboxamide]
8.74	Cc1cccn2c(C(C)(C)NC(=O)[C@@H]3CNCCN3Cc3cnn(C)c3)ncc12 [SC-090, (S)-1-((1-methyl-1H-pyrazol-4-yl)methyl)-N-(2-(8-methylimidazo[1,5-a]pyridin-3-yl)propan-2-yl)piperazine-2-carboxamide]
10.22	Cc1cc(CN2CCNC[C@H]2C(=O)NC(C)(C)c2ncc3c(C)cccn23)ccn1 [SC-091, (S)-N-(2-(8-methylimidazo[1,5-a]pyridin-3-yl)propan-2-yl)-1-((2-methylpyridin-4-yl)methyl)piperazine-2-carboxamide]
9.68	Cc1cccc2c(C(C)(C)NC(=O)[C@@H]3CNCCN3C)n[nH]c12 [SC-094, (S)-1-methyl-N-(2-(7-methyl-1H-indazol-3-yl)propan-2-yl)piperazine-2-carboxamide]

Continued, compound first:

Compound	pEC50
Cc1cccn2c(C(C)(C)NC(=O)[C@@H]3CN(Cc4cc(C(F)(F)F)nn4C)CCN3)ncc12 [SC-064, (S)-4-((1-methyl-3-(trifluoromethyl)-1H-pyrazol-5-yl)methyl)-N-(2-(8-methylimidazo[1,5-a]pyridin-3-yl)propan-2-yl)piperazine-2-carboxamide]	4.89
Cc1cccn2c(C(C)(C)NC(=O)[C@@H]3CN(Cc4ncco4)CCN3)ncc12 [SC-065, (S)-N-(2-(8-methylimidazo[1,5-a]pyridin-3-yl)propan-2-yl)-4-(oxazol-2-ylmethyl)piperazine-2-carboxamide]	5.89
Cc1cccn2c(C(C)(C)NC(=O)[C@@H]3CN(Cc4ccn(C)n4)CCN3)ncc12 [SC-066, (S)-4-((1-methyl-1H-pyrazol-3-yl)methyl)-N-(2-(8-methylimidazo[1,5-a]pyridin-3-yl)propan-2-yl)piperazine-2-carboxamide]	5.80
Cc1cccn2c(C(C)(C)NC(=O)[C@@H]3CN(CC4CCC4)CCN3)ncc12 [SC-068, (S)-4-(cyclobutylmethyl)-N-(2-(8-methylimidazo[1,5-a]pyridin-3-yl)propan-2-yl)piperazine-2-carboxamide]	6.23
CCCN1CCN[C@H](C(=O)NC(C)(C)c2ncc3c(C)cccn23)C1 [SC-070, (S)-N-(2-(8-methylimidazo[1,5-a]pyridin-3-yl)propan-2-yl)-4-propylpiperazine-2-carboxamide]	7.09
Cc1cccn2c(C(C)(C)NC(=O)[C@@H]3CN(Cc4cnn(C)c4)CCN3)ncc12 [SC-071, (S)-4-((1-methyl-1H-pyrazol-4-yl)methyl)-N-(2-(8-methylimidazo[1,5-a]pyridin-3-yl)propan-2-yl)piperazine-2-carboxamide]	6.27
Cc1cccn2c(C(C)(C)NC(=O)[C@@H]3CN(Cc4ccn(C(C)C)n4)CCN3)ncc12 [SC-073, (S)-4-((1-isopropyl-1H-pyrazol-3-yl)methyl)-N-(2-(8-methylimidazo[1,5-a]pyridin-3-yl)propan-2-yl)piperazine-2-carboxamide]	5.32
Cc1cccn2c(C(C)(C)NC(=O)[C@@H]3CN(C4COC4)CCN3)ncc12 [SC-075, (S)-N-(2-(8-methylimidazo[1,5-a]pyridin-3-yl)propan-2-yl)-4-(oxetan-3-yl)piperazine-2-carboxamide]	6.21
Cc1cccn2c(C(C)(C)NC(=O)[C@@H]3CN(CC4COC4)CCN3)ncc12 [SC-076, (S)-N-(2-(8-methylimidazo[1,5-a]pyridin-3-yl)propan-2-yl)-4-(oxetan-3-ylmethyl)piperazine-2-carboxamide]	6.21
Cc1cccn2c(C(C)(C)NC(=O)[C@@H]3CN(C(=O)c4cnn(C(C)C)c4)CCN3)ncc12 [SC-081, (S)-4-(1-isopropyl-1H-pyrazole-4-carbonyl)-N-(2-(8-methylimidazo[1,5-a]pyridin-3-yl)propan-2-yl)piperazine-2-carboxamide]	< 5.00
Cc1cccn2c(C(C)(C)NC(=O)[C@@H]3CN(C(=O)c4ccnn4C)CCN3)ncc12 [SC-082, (S)-4-(1-methyl-1H-pyrazole-5-carbonyl)-N-(2-(8-methylimidazo[1,5-a]pyridin-3-yl)propan-2-yl)piperazine-2-carboxamide]	5.27
Cc1cccn2c(C(C)(C)NC(=O)[C@@H]3CN(C(=O)c4cnn(C)c4)CCN3)ncc12 [SC-083, (S)-4-(1-methyl-1H-pyrazole-4-carbonyl)-N-(2-(8-methylimidazo[1,5-a]pyridin-3-yl)propan-2-yl)piperazine-2-carboxamide]	5.17
Cc1cccn2c(C(C)(C)NC(=O)[C@@H]3CN(C(=O)c4ccn(C)n4)CCN3)ncc12 [SC-084, (S)-4-(1-methyl-1H-pyrazole-3-carbonyl)-N-(2-(8-methylimidazo[1,5-a]pyridin-3-yl)propan-2-yl)piperazine-2-carboxamide]	< 5.00
Cc1cccn2c(C(C)(C)NC(=O)[C@@H]3CNCCN3CC3CCC(F)(F)CC3)ncc12 [SC-087, (S)-1-((4,4-difluorocyclohexyl)methyl)-N-(2-(8-methylimidazo[1,5-a]pyridin-3-yl)propan-2-yl)piperazine-2-carboxamide]	9.57
COCCN1CCNC[C@H]1C(=O)NC(C)(C)c1ncc2c(C)cccn12 [SC-092, (S)-1-(2-methoxyethyl)-N-(2-(8-methylimidazo[1,5-a]pyridin-3-yl)propan-2-yl)piperazine-2-carboxamide]	8.96
